Publication PMC8398847, “Isavuconazole: Thermodynamic Evaluation of Processes Sublimation, Dissolution and Partition in Pharmaceutically Relevant Media” (Molecules, 2021)

Assays:
[1] = Vapor pressure by transpiration (inert gas-carrier transfer) method; sublimation thermodynamic functions; assay type: physicochemical; conditions: test of the technique with the standard
Experimental: The thermodynamic functions of sublimation were calculated as the fitting coefficients of the Clarke and Glew equation [17]:(1) Rlnp/p^0=ΔcrgGm°(θ)/θ+ΔcrgHm°(θ)(1/θ−1/T)+ΔcrgCp,m°(θ)(θ/T−1+lnT/θ) where ΔcrgHm°(θ) is the standard molar sublimation enthalpy, ΔcrgGm°(θ) is the standard molar Gibbs energy of sublimation, and ΔcrgCp,m°(θ) is the difference between the constant pressure standard molar heat capacity Cp,m°(g) of the gaseous compound and the constant pressure standard molar heat capacity Cp,m°(cr) of the crystalline compound. The value is the arbitrary reference temperature θ = 298.15 K; p^0 = 10^5 Pa is the reference pressure.
The transpiration method was used for the sublimation experiment. A stream of an inert gas (nitrogen) was passed over a sample at the constant temperature and flow rate; saturation of the gas with the substance vapor was achieved by low transpiration rate of gas. Then, the sublimated quantity of condensed vapor was determined. The volume of the inert gas and the amount of the sublimated material were used for calculation the vapor pressure over the sample of compound at this temperature. The following procedure was used for determination the amount of sublimed substance. The condensed sample was dissolved in a known volume of solvent Vsol. The mass of the substance was determined by the measurement of absorbance A of its solution (spectrophotometer Cary-50, Varian, Palo Alto, CA, USA, Software Version 3.00 (339)). According to the Lambert–Beer law the concentration of the solution c (mol·L^−1) can express knowing a value of the extinction coefficient ε (l·mol^−1·cm^−1) of the studied compound dissolved in the solvent and an absorbing path length (l):A = εcl(5) where l is an absorbing path length. Calculation the mass of sublimed compound was performed according to the equation:m = cVsolM(6)
M is the molar mass of the studied substance.
The vapor pressure p at each temperature was determined from the amount of the substance collected within a known time:p = mRTa/VM(7) where V is the volume of the gaseous nitrogen evaluated from the time measurement and the flow rate at the flow meter temperature Ta and the atmospheric pressure. Uncertainties for transpiration experiment parameters (T, m, Ta, V) are reported as standard deviations (Table 1). The combined standard uncertainty of vapor pressure measurements were estimated taking into account uncertainties of all variables involved in eq 7.
The details of equipment and experimental procedure are given in [33]. The sublimation technique was tested with benzoic acid as standard. The experimental vapor pressure values were obtained in the temperature interval of (307–385) K and were in good agreement with the results of studies within the limits of experimental error (Figure S7). The standard sublimation enthalpy of benzoic acid measured by us was 90.5 ± 0.3 kJ·mol^−1 and consistent with recommended by IUPAC value—89.7 ± 0.5 kJ·mol^−1 [38]. Each experiment at fixed temperature was repeated three times with the standard deviation of up to 5%.

[2] = design: method as in earlier work; conditions: cited from earlier work

SMILES: O=C(O)c1ccccc1 [benzoic acid]
- standard sublimation enthalpy [1]: 21.6 ± 0.072 kcal/mol
- standard sublimation enthalpy recommended by IUPAC [2]: 21.4 ± 0.12 kcal/mol
